Experimental data reported in ChEMBL document CHEMBL1158916, “2-O-alpha-D-galactopyranosyl glycerol hexaacetate from Ruellia brittoniana” (J Nat Prod, 1990).

Test system: Rattus norvegicus
Experiment: Toxicity in anesthetized rat assessed as increase in mean arterial pressure at 100 ug/kg
Format: organism-based, Artery
Conditions: in vivo, 0.1 mg/kg

## CC(=O)OCC(COC(C)=O)O[C@H]1O[C@H](COC(C)=O)[C@H](OC(C)=O)[C@H](OC(C)=O)[C@H]1OC(C)=O
  Activity: Toxic
